For 4 compounds, IC50 results are on record in ChEMBL document CHEMBL1158085, “Chrysosporide, a cyclic pentapeptide from a New Zealand sample of the fungus Sepedonium chrysospermum” (J Nat Prod, 2006).

In general, IC50 refers to the point on the concentration scale where inhibition reaches its midpoint. Higher therefore signals weaker potency in that assay.

The test system of the test is P388. The test is described as follows: Cytotoxicity against mouse P388 cells. The class given is functional, cell-based.
As for `C/C=C/[C@@H]1OC(=O)C=C[C@@H]1O` [PHOMALACTONE], the 50% inhibitory concentration (IC50) came out at 40.9 µM.

`CC(=O)Cc1cc(O)c(C)c(O)c1C=O` registered an IC50 of 19.7 µM.

`CC(C)C[C@@H]1NC(=O)[C@H](CC(C)C)NC(=O)[C@@H](C)NC(=O)[C@H](C(C)C)NC(=O)[C@@H](CC(C)C)NC1=O` [CHRYSOSPORIDE] showed an IC50 of 33.4 µM.

`Cc1cc(O)c(C)c(O)c1C=O` showed a 50% inhibitory concentration (IC50) of 126 µM.
